In brackets after ≈: the same amount, converted by molar mass.
conditions: not given

SMILES | solubility [mM]
O=C(OCCOc1ccc(Cl)cc1Cl)c1ccccc1 | 0.154 (≈ 48 µg/mL)
C=C1C[C@]23C[C@@]1(O)CC[C@H]2[C@@]12C=C[C@H](O)[C@@](C)(C(=O)O1)[C@H]2[C@@H]3C(=O)O | 14.4 (≈ 5000 µg/mL)
O=C[C@@H]1C[C@@H]2[C@@H]3[C@H]1[C@@]1(Cl)C(Cl)(Cl)[C@]3(Cl)[C@@]3(Cl)[C@@H]2[C@]31Cl | 6.3e-05 (≈ 0.024 µg/mL)
Cc1[nH]c(=O)n(C(C)C)c(=O)c1Br | 8.7 (≈ 2150 µg/mL)

same assay, conditions: 20 °C

SMILES | solubility [mM]
CNC(=O)N(C)c1nnc(C(F)(F)F)s1 | 8.74 (≈ 2100 µg/mL)
Cc1cc(N(C)C)nc(Cl)n1 | 54.8 (≈ 9400 µg/mL)
COP(=S)(OC)Oc1ccc(Sc2ccc(OP(=S)(OC)OC)cc2)cc1 | 0.000579 (≈ 0.27 µg/mL)
CCSCCSP(=O)(OC)OC | 14.3 (≈ 3300 µg/mL)
CN(C)C(=O)SCCCCOc1ccccc1 | 0.118 (≈ 30 µg/mL)
C=CCN(CC=C)C(=O)C(Cl)Cl | 24 (≈ 5000 µg/mL)
CCCOC/C(=N\c1ccc(Cl)cc1C(F)(F)F)n1ccnc1 | 36.1 (≈ 12500 µg/mL)
COP(=S)(OC)SCC(=O)N(c1ccc(Cl)cc1)C(C)C | 0.037 (≈ 13.6 µg/mL)
CN(C)C(O)=Nc1ccc(-n2nc(C(C)(C)C)oc2=O)c(Cl)c1 | 0.0472 (≈ 16 µg/mL)
CNC(=O)Oc1ccccc1C1OCCO1 | 26.9 (≈ 6000 µg/mL)
CC(C)OP(=O)(OC(C)C)SCc1ccccc1 | 1.39 (≈ 400 µg/mL)
O=C1CCc2cccc3c2N1CC3 | 23.1 (≈ 4000 µg/mL)
N#C/C(=N\OCC1OCCO1)c1ccccc1 | 0.0861 (≈ 20 µg/mL)
O=C(O)Cc1c[nH]c2ccccc12 | 8.56 (≈ 1500 µg/mL)
O=CNC(Nc1ccc(Cl)c(Cl)c1)C(Cl)(Cl)Cl (centres undefined) | 0.476 (≈ 160 µg/mL)
CCOC(=O)Nc1cccc(OC(=O)Nc2ccccc2)c1 | 0.0233 (≈ 7 µg/mL)
O=[N+]([O-])c1ccc(O/N=C/c2cc(Br)c(O)c(Br)c2)c([N+](=O)[O-])c1 | 0.000217 (≈ 0.1 µg/mL)
CCC1COC(Cn2cncn2)(c2ccc(Cl)cc2Cl)O1 (centres undefined) | 0.244 (≈ 80 µg/mL)
[Br-].[Br-].c1cc[n+]2c(c1)-c1cccc[n+]1CC2 | 2060
C1CNCCN1.Cl.Cl | 2580
CC(Cl)(Cl)[N+](=O)[O-] | 17.4 (≈ 2500 µg/mL)
CNC(=S)[S-].[Na+] | 5590
Cc1ccc(NC(=O)N(C)C)cc1Cl | 0.329 (≈ 70 µg/mL)
CN(C(=O)COc1nc2ccccc2s1)c1ccccc1 | 0.0134 (≈ 4 µg/mL)
O=S1(=O)OCC2C(CO1)C1(Cl)C(Cl)=C(Cl)C2(Cl)C1(Cl)Cl (centres undefined) | 0.00114 (≈ 0.48 µg/mL)
C#CC(C)N(C(=O)CCl)c1ccccc1 (centres undefined) | 2.26 (≈ 500 µg/mL)
CCOC(=O)NCCOc1ccc(Oc2ccccc2)cc1 | 0.0199 (≈ 6 µg/mL)

same assay, conditions: 22 °C

SMILES | solubility [mM]
CCSC(=O)N(CC)C1CCCCC1 | 0.395 (≈ 85 µg/mL)

same assay, conditions: 23 °C

SMILES | solubility [mM]
COC(=O)C(C)N(C(=O)c1ccccc1)c1ccc(F)c(Cl)c1 (centres undefined) | 0.0857 (≈ 28.8 µg/mL)

same assay, conditions: 25 °C

SMILES | solubility [mM]
O=C(O)COc1cc(Cl)cc(Cl)c1 | 4.35 (≈ 961 µg/mL)
CCOP(=S)(OCC)SCSP(=S)(OCC)OCC | 0.0052 (≈ 2 µg/mL)
C=C(CC(Cl)(Cl)Cl)c1ccccc1 | 0.0522 (≈ 12.3 µg/mL)
FC(F)(F)c1nc2c(Cl)c(Cl)ccc2[nH]1 | 0.271 (≈ 69 µg/mL)
CCN(CC)C(=O)CCl | 571 (≈ 85500 µg/mL)
CN(C)C(=O)Nc1cc(C(C)(C)C)on1 | 3.74 (≈ 790 µg/mL)
Cc1ccc(/N=C/N(C)/C=N/c2ccc(C)cc2C)c(C)c1 | 0.00341 (≈ 1 µg/mL)
COP(=S)(OC)Oc1ccc([N+](=O)[O-])c(C)c1 | 0.137 (≈ 38 µg/mL)
COC(=O)C(C)Oc1ccc(Oc2ncc(C(F)(F)F)cc2Cl)cc1 (centres undefined) | 0.0248 (≈ 9.3 µg/mL)
O=C(O)COc1nc(Cl)c(Cl)cc1Cl | 1.72 (≈ 440 µg/mL)
COC(=O)C1(O)c2ccccc2-c2ccc(Cl)cc21 (centres undefined) | 0.0655 (≈ 18 µg/mL)
Cc1nc(C)c(Cl)c(O)c1Cl | 0.0521 (≈ 10 µg/mL)
CC(O)COCc1c(Cl)ccc(Cl)c1Cl (centres undefined) | 0.271 (≈ 73 µg/mL)
CCCCc1c(C)nc(NCC)nc1OS(=O)(=O)N(C)C | 0.0695 (≈ 22 µg/mL)
O=C(O)c1cc(Cl)c(Cl)cc1Cl | 3.59 (≈ 810 µg/mL)
CCSC(=O)N(CC)CC | 20.3 (≈ 3280 µg/mL)
CNP(=O)(OC)Oc1ccc(C(C)(C)C)cc1Cl (centres undefined) | 0.686 (≈ 200 µg/mL)
CCCCS/C(=N\c1cccnc1)SCc1ccc(C(C)(C)C)cc1 | 0.00268 (≈ 1 µg/mL)
CCOC(=O)CN(C(=O)CCl)c1c(CC)cccc1CC | 0.337 (≈ 105 µg/mL)
CNC(=O)Oc1c(C(C)(C)C)cc(C)cc1C(C)(C)C | 0.0252 (≈ 7 µg/mL)
CC(C)=CCl | 11 (≈ 1000 µg/mL)

same assay, conditions: 26 °C

SMILES | solubility [mM]
CCNc1nc(OC)nc(N(CC)CC)n1 | 1 (≈ 226 µg/mL)

same assay, conditions: 30 °C

SMILES | solubility [mM]
CN1C(=O)[C@]23CC4=CC=C[C@H](O)[C@H]4N2C(=O)[C@@]1(CO)SS3 | 0.214 (≈ 70 µg/mL)
CCC(C)N(C(=O)SCc1ccccc1)C(C)CC (centres undefined) | 0.00895 (≈ 2.5 µg/mL)

same assay, conditions: pH 3.0; 26 °C

SMILES | solubility [mM]
CCN(CC)c1nc(NC(C)C)nc(OC)n1 | 0.0129 (≈ 3.09 µg/mL)

same assay, conditions: pH 7.0; 25 °C

SMILES | solubility [mM]
Cn1cc(-c2ccccc2)c(=O)c(-c2cccc(C(F)(F)F)c2)c1 | 0.0364 (≈ 12 µg/mL)

— the OPERA property sets (Mansouri et al. 2018)
